From paper PMC6039436, “Radiobrominated benzimidazole-quinoline derivatives as Platelet-derived growth factor receptor beta (PDGFRβ) imaging probes” (Scientific Reports, 2018)
Marks after values point to notes of the source that are not given here.

How the values were obtained:
[1] = tested on: RXF393 xenograft; set-up: method as in PMID 23522977; conditions: RXF393 xenograft mice; cited from earlier work
[2] = tested on: BxPC3-luc cells (PDGFRβ-positive); test: Cellular uptake study (double tracer method); assay type: cell-based; conditions: BxPC3-luc (PDGFRβ-positive) vs MCF7 (PDGFRβ-negative), 0.5–4 h
Experimental: Figure 5 Cellular uptake study. Time-dependent accumulation of (a) [^77Br]2 and [^125I]4 (b) [^77Br]3 and [^125I]5 in BxPC3-luc and MCF7 cells. Data were presented as mean ± SD for three samples.
Radiotracer uptake experiments in tumor cells were performed using BxPC3-luc and MCF7 cell lines. To compare the uptake between radiobrominated compounds, [^77Br]2 and [^77Br]3, and the corresponding radioiodinated compounds, [^125I]4 and [^125I]5, the cellular uptake experiments were performed by a double tracer method as described previously with a slight modification[30],[31],[35]. Briefly, the cells were seeded in RPMI 1640 medium containing 10% FBS and antibiotics on six-well plates (2 × 10^5 cells/well) for 24 h in a 5% CO2 incubator at 37 °C. After removal of medium, cells were incubated in medium without FBS containing [^77Br]2 (3.7 kBq/well) and [^125I]4 (3.7 kBq/well) or [^77Br]3 (3.7 kBq/well) and [^125I]5 (3.7 kBq/well) and tween-80 (0.1%) for 0.5, 1, 2 and 4 h. Radioiodinated compounds were prepared as described previously][24]. Cells were washed with ice-cold 1 mL of PBS and dissolved using 0.5 mL of 1 M NaOH and wells were washed with 1 M NaOH aqueous solution (0.5 mL). The radioactivity of pooled basic fractions was counted by a gamma counter. A range between 16 and 71 keV was used for measuring ^125I and between 95 and 700 for ^77Br. When radioactivity of ^77Br was counted, the crossover of ^125I activity into the ^77Br channel was negligible. More than one month after the experiment, the radioactivity of ^125I was determined because at that time ^77Br has been decayed and its radioactivity was negligible. The protein in the cell was quantified by a BCA Protein Assay Kit. All data were expressed as %dose/µg protein.

[3] = Biodistribution in ddY mice; assay type: in vivo; conditions: i.v. co-injection
Experimental: In this study, to minimize both the number of mice consumed in the experiment and the potential for experimental errors, we co-injected radiobrominated and radioiodinated compounds into mice[30],[31]. High radioactivity in the liver, small intestine, and large intestine was observed.
(§1) Mice were intravenously injected via the tail with 100 µL of saline solution of [^77Br]2 and [^125I]4 or [^77Br]3 and [^125I]5 (74 kBq, respectively), containing 10% ethanol and 1% tween-80. The ddY mice were sacrificed at 10 min, 1, 4, and 24 h postinjection. Meanwhile, tumor-bearing mice were sacrificed at 1 h postinjection.
(§2) Tissues in mice were resected and weighed. The radioactivity of the tissues was counted by a gamma counter and counts were corrected for background radiation. The data were expressed as percent injection dose per gram tissue (%ID/g).

[4] = set-up: method as in PMID 28838832; conditions: radioiodinated compounds; cited from earlier work
[5] = tested on: BxPC3-luc tumor; test: Biodistribution in BxPC3-luc tumor-bearing mice; assay type: in vivo, BALB/c nu/nu mice
Experimental: We investigated the biodistribution of the radiotracers in BxPC3-luc tumor-bearing mice by co-injecting [^77Br]2 with [^125I]4 (Table 3), and [^77Br]3 with [^125I]5 (Table 4).
Animal experiments were conducted in strict accordance with the Guidelines for the Care and Use of Laboratory Animals of Kanazawa University. The animal experimental protocols used were approved by the Committee on Animal Experimentation of Kanazawa University (Permit Number: AP-163766). The animals were housed with free access to food and water at approximately 23 °C with a 12 h light/dark schedule. ddY mice (six-week-old, male, 27–30 g) and BALB/c nu/nu mice (four-week-old, female, 12–17 g) were purchased from Japan SLC Inc. (Hamamatsu, Japan). For preparing the tumor-bearing mice, BxPC3-luc cells (5 × 10^6 cells) were subcutaneously injected into the left shoulder of BALB/c nu/nu mice. The tumor reached palpable size after two weeks of the inoculation.
as §1, §2

[6] = biological target: T1, PDGFRβ (BxPC3-luc cells) (Homo sapiens, UniProt P09619); test: Competitive binding assay of [^125I]4 with BxPC3-luc cells; conditions: displacement of [^125I]4, BxPC3-luc cells, 37 °C, 4 h
T1 construct: host or cells: BxPC3-luc cells
Experimental: We investigated the competitive binding of [^125I]4 to BxPC3-luc cells with PDGFRβ ligand, 1, 2, and 3.
BxPC3-luc cells in medium containing 10% FBS and antibiotics were seeded on 24-well plates (50,000 cells/wells) and incubated for 24 h in a 5% CO2 incubator at 37 °C. Nine concentrations of displacing nonradiolabeled ligands (1, 2 and 3) (ranging from 1 pM to 1 mM) and [^125I]4 in medium without FBS were incubated at 37 °C for 4 h. After washing the cells twice using 250 µL of ice-cold PBS, the unbound radioligand was removed. The cells were dissolved using 250 µL of 1 M NaOH and wells were washed with 250 µL of 1 M NaOH. The bound radioactivity was determined using a gamma counter.
All data were statisticaly analyzed using GraphPad 5.0 software (La Jolla, CA, USA) and expressed as mean ± standard deviation (SD). Significance for in vitro blocking experiments was determined by a one-way analysis of variance (ANOVA) followed by Dunnett’s post hoc test compared to the control group. Significance in cell viability assays was determined by ANOVA followed by Tukey’s post hoc test. IC50 values for the binding assay were calculated by nonlinear regression. Significant differences in biodistribution experiments between [^77Br]2 and [^77Br]3 groups were determined using unpaired Student’s t-test. Significance for in vivo blocking studies between control and blocking groups were determined by unpaired Student’s t-test. Results were considered statistically significant at p < 0.05.

[7] = tested on: PDGFRβ overexpressed TR-PCT1 cells; test: Cell viability assay (WST-8 / Cell Counting Kit-8); assay type: cell-based, rat; conditions: 1–1000 nM, 72 h, 20 ng/mL PDGF-BB, compared with 1
Experimental: The binding affinity of 2 and 3 to the ATP-binding site in PDGFRβ was evaluated using PDGFRβ overexpressed TR-PCT1 cells. Cells were treated with 1–1000 nM of synthesized ligands, 1, 2, or 3.
Figure 4 Cell viability after exposure 1, 2, and 3 by WST-8 assay. Data were presented as mean ± SD for three samples. Significance was determined using a one-way ANOVA followed by Tukey’s post hoc test (^*p < 0.01, ^**p < 0.001).
The cell viability assay of brominated compounds, 2 and 3, was evaluated as described previously[24],[27]. Namely, TR-PCT1 cells were seeded on 96-well plates (5 × 10^3 cells/well) and cultured at 33 °C in DMEM medium with 20 ng/mL PDGF-BB and 2% FBS in a 5% CO2 incubator. Cells were treated with each compound for 72 h and cell viability was determined by the Cell Counting Kit-8.

T1 sequence (P09619 33-1106): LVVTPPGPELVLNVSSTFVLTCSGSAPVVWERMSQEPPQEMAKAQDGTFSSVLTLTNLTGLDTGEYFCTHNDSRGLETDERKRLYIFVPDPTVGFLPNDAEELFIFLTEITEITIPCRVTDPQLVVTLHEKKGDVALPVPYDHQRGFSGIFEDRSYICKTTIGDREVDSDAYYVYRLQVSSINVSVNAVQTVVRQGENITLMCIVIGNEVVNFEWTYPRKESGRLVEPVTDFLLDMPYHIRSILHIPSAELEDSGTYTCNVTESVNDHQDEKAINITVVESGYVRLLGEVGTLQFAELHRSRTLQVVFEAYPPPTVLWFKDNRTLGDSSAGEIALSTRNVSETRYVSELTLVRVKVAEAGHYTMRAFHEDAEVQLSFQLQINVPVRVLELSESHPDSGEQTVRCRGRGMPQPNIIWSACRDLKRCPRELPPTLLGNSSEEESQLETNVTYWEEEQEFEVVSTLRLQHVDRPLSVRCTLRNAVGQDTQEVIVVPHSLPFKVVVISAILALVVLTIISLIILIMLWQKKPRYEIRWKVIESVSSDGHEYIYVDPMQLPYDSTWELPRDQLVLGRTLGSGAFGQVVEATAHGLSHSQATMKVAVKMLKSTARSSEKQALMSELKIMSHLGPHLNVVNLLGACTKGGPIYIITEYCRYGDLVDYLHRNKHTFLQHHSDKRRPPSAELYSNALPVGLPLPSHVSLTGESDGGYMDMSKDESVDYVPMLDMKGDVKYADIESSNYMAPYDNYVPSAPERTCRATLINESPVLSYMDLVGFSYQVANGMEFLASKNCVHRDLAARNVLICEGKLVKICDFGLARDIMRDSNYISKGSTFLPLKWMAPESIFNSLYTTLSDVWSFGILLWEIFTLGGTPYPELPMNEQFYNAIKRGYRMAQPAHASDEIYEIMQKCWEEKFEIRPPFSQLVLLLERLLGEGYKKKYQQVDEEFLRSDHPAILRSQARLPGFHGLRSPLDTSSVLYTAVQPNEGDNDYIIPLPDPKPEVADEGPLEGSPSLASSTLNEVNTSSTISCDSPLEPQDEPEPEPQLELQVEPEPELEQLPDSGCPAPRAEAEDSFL

SMILES: CNC(=O)c1cc(Oc2ccc(NC(=O)Nc3ccc(Cl)c(C(F)(F)F)c3)cc2)ccn1 [^11C-labeled sorafenib, sorafenib]
- Tumor uptake [1]: about 2.52 ± 0.33 %ID/g

SMILES: COCCOc1ccc2c(c1)ncn2-c1ccc2c([125I])ccc(N3CCC(N)CC3)c2n1 [[^125I]4, [^125I]1-{5-iodo-2-[5-(2-methoxyethoxy)-1H-benzo[d]imidazol-1-yl]quinolin-8-yl}piperidin-4-amine, reference compound]
- Cellular uptake in BxPC3-luc cells [2]: higher than that in MCF7 cells
- Radioactivity in Blood ([3]; 10 min): 1.15 (0.08)^* %injected dose/gram tissue
- Radioactivity in Bone ([3]; 10 min): 1.53 (0.14) %injected dose/gram tissue
- Radioactivity in Brain ([3]; 10 min): 0.07 (0.00)^** %injected dose/gram tissue
- Radioactivity in Heart ([3]; 10 min): 4.27 (0.27) %injected dose/gram tissue
- Radioactivity in Kidney ([3]; 10 min): 14.44 (1.31) %injected dose/gram tissue
- Radioactivity in Large intestine ([3]; 10 min): 0.80 (0.07)^* %injected dose/gram tissue
- Radioactivity in Liver ([3]; 10 min): 11.59 (0.69) %injected dose/gram tissue
- Radioactivity in Lung ([3]; 10 min): 9.64 (0.66)^* %injected dose/gram tissue
- Radioactivity in Muscle ([3]; 10 min): 1.92 (0.18) %injected dose/gram tissue
- Radioactivity in Pancreas ([3]; 10 min): 3.52 (0.33)^* %injected dose/gram tissue
- Radioactivity in Small intestine ([3]; 10 min): 9.32 (2.30) %injected dose/gram tissue
- Radioactivity in Spleen ([3]; 10 min): 5.08 (0.56) %injected dose/gram tissue
- Radioactivity in Stomach ([3]; 10 min): 1.66 (0.11) %injected dose /organ
- Radioactivity in Blood ([3]; 1 h): 0.32 (0.09) %injected dose/gram tissue
- Radioactivity in Bone ([3]; 1 h): 1.22 (0.29) %injected dose/gram tissue
- Radioactivity in Brain ([3]; 1 h): 0.15 (0.04) %injected dose/gram tissue
- Radioactivity in Heart ([3]; 1 h): 1.23 (0.49) %injected dose/gram tissue
- Radioactivity in Kidney ([3]; 1 h): 8.18 (2.71) %injected dose/gram tissue
- Radioactivity in Large intestine ([3]; 1 h): 2.16 (0.54) %injected dose/gram tissue
- Radioactivity in Liver ([3]; 1 h): 3.72 (1.18) %injected dose/gram tissue
- Radioactivity in Lung ([3]; 1 h): 3.88 (0.72) %injected dose/gram tissue
- Radioactivity in Muscle ([3]; 1 h): 0.78 (0.11) %injected dose/gram tissue
- Radioactivity in Pancreas ([3]; 1 h): 2.49 (0.63) %injected dose/gram tissue
- Radioactivity in Small intestine ([3]; 1 h): 25.44 (6.86) %injected dose/gram tissue
- Radioactivity in Spleen ([3]; 1 h): 1.67 (0.41) %injected dose/gram tissue
- Radioactivity in Stomach ([3]; 1 h): 1.76 (0.58) %injected dose /organ
- Radioactivity in Blood ([3]; 4 h): 0.19 (0.05) %injected dose/gram tissue
- Radioactivity in Bone ([3]; 4 h): 0.32 (0.08) %injected dose/gram tissue
- Radioactivity in Brain ([3]; 4 h): 0.03 (0.00)^** %injected dose/gram tissue
- Radioactivity in Heart ([3]; 4 h): 0.31 (0.05)^* %injected dose/gram tissue
- Radioactivity in Kidney ([3]; 4 h): 4.28 (0.68) %injected dose/gram tissue
- Radioactivity in Large intestine ([3]; 4 h): 51.43 (8.57) %injected dose/gram tissue
- Radioactivity in Liver ([3]; 4 h): 3.45 (1.02) %injected dose/gram tissue
- Radioactivity in Lung ([3]; 4 h): 2.18 (0.55) %injected dose/gram tissue
- Radioactivity in Muscle ([3]; 4 h): 0.23 (0.06)^** %injected dose/gram tissue
- Radioactivity in Pancreas ([3]; 4 h): 1.27 (0.11)^* %injected dose/gram tissue
- Radioactivity in Small intestine ([3]; 4 h): 4.98 (0.89) %injected dose/gram tissue
- Radioactivity in Spleen ([3]; 4 h): 0.43 (0.11) %injected dose/gram tissue
- Radioactivity in Stomach ([3]; 4 h): 0.85 (0.21) %injected dose /organ
- Radioactivity in Blood ([3]; 24 h): 0.03 (0.00)^** %injected dose/gram tissue
- Radioactivity in Bone ([3]; 24 h): 0.15 (0.05)^** %injected dose/gram tissue
- Radioactivity in Brain ([3]; 24 h): 0.02 (0.00)^** %injected dose/gram tissue
- Radioactivity in Heart ([3]; 24 h): 0.10 (0.09)^** %injected dose/gram tissue
- Radioactivity in Kidney ([3]; 24 h): 0.13 (0.03) %injected dose/gram tissue
- Radioactivity in Large intestine ([3]; 24 h): 0.14 (0.02) %injected dose/gram tissue
- Radioactivity in Liver ([3]; 24 h): 0.29 (0.08) %injected dose/gram tissue
- Radioactivity in Lung ([3]; 24 h): 0.15 (0.08)^* %injected dose/gram tissue
- Radioactivity in Muscle ([3]; 24 h): 0.04 (0.01)^** %injected dose/gram tissue
- Radioactivity in Pancreas ([3]; 24 h): 0.07 (0.02) %injected dose/gram tissue
- Radioactivity in Small intestine ([3]; 24 h): 0.04 (0.00)^** %injected dose/gram tissue
- Radioactivity in Spleen ([3]; 24 h): 0.11 (0.09)^* %injected dose/gram tissue
- Radioactivity in Stomach ([3]; 24 h): 0.05 (0.00)^** %injected dose /organ
- n-octanol/phosphate buffer partition coefficient (log P) [4]: 2.71 ± 0.03
- Tumor-to-blood ratio of radioactivity ([5]; 1 h postinjection): 1.9
- Radioactivity in Blood ([5]; i.v. co-injection, 1 h): 0.63 (0.05) %injected dose/gram of tissue
- Radioactivity in Bone ([5]; i.v. co-injection, 1 h): 0.83 (0.10)^* %injected dose/gram of tissue
- Radioactivity in Brain ([5]; i.v. co-injection, 1 h): 0.07 (0.00) %injected dose/gram of tissue
- Radioactivity in BxPC3-luc tumor ([5]; i.v. co-injection, 1 h): 1.19 (0.06)^* %injected dose/gram of tissue
- Radioactivity in Heart ([5]; i.v. co-injection, 1 h): 1.51 (0.40) %injected dose/gram of tissue
- Radioactivity in Kidney ([5]; i.v. co-injection, 1 h): 15.56 (3.61) %injected dose/gram of tissue
- Radioactivity in Large intestine ([5]; i.v. co-injection, 1 h): 2.46 (0.35) %injected dose/gram of tissue
- Radioactivity in Liver ([5]; i.v. co-injection, 1 h): 11.02 (0.73) %injected dose/gram of tissue
- Radioactivity in Lung ([5]; i.v. co-injection, 1 h): 9.14 (2.14) %injected dose/gram of tissue
- Radioactivity in Muscle ([5]; i.v. co-injection, 1 h): 0.79 (0.10) %injected dose/gram of tissue
- Radioactivity in Pancreas ([5]; i.v. co-injection, 1 h): 5.48 (0.93) %injected dose/gram of tissue
- Radioactivity in Small intestine ([5]; i.v. co-injection, 1 h): 47.01 (5.56) %injected dose/gram of tissue
- Radioactivity in Spleen ([5]; i.v. co-injection, 1 h): 2.76 (0.73) %injected dose/gram of tissue
- Radioactivity in Stomach ([5]; i.v. co-injection, 1 h): 0.97 (0.19) %injected dose /organ

SMILES: COCCOc1ccc2c(c1)ncn2-c1ccc2c(Br)ccc(N3CCC(N)CC3)c2n1 [Compound 2, 1-{5-bromo-2-[5-(2-methoxyethoxy)-1H-benzo[d]imidazol-1-yl]quinolin-8-yl}piperidin-4-amine]
- IC50 [6]: 56 ± 13 nM
- Cell viability of TR-PCT1 cells [7]: more effective in decreasing the viability of TR-PCT1 cells than 1
